Experimental data: ChEMBL document CHEMBL4421731, “Small molecules inhibiting oncoprotein Myc” (2016)
One block for each molecule: values may come before it. The source made the active and inactive calls. No cut-off for these calls is given here.

How the values were obtained:
[1] = test system: Melanocyte; assay: Growth inhibition of human melanocytes; type: cell-based
[2] = species: Homo sapiens; assay: Growth inhibition of N-Myc overexpressing human NBL-S cells; type: functional
[3] = test system: Melanoma cell line; assay: Growth inhibition of human melanoma (#3) cells; type: functional, cell-based
[4] = test system: IMR-32; assay: Growth inhibition of human IMR32 cells; type: functional, cell-based
[5] = test system: SH-SY5Y; assay: Growth inhibition of human SH-SY5Y cells; type: functional, cell-based
[6] = species: Homo sapiens; assay: Growth inhibition of human SHEP cells; type: functional
[7] = test system: BE(2)-C; assay: Growth inhibition of human BE(2)-C cells; type: functional, cell-based
[8] = biological target: Myc proto-oncogene protein (Homo sapiens) (UniProt P01106); assay: Inhibition of Myc in human melanoma cells assessed as reduction in Myc-transactivated thymidylate synthase gene expression; type: cell-based
[9] = species: Homo sapiens; assay: Growth inhibition of N-Myc amplified human NBL-WN cells; type: functional
[10] = test system: Melanoma cell line; assay: Growth inhibition of human melanoma (#10) cells; type: functional, cell-based
[11] = biological target: Myc proto-oncogene protein (Homo sapiens) (UniProt P01106); assay: Inhibition of Myc in human melanoma cells assessed as increase in Myc-repressed p27kip1 gene expression; type: cell-based
[12] = biological target: Myc proto-oncogene protein (Homo sapiens) (UniProt P01106); assay: Inhibition of C-Myc (unknown origin) expressed in rat Rat1A cells assessed as inhibition of cell growth incubated for 72 hrs by methylene blue staining based assay
[13] = biological target: T1, N-myc proto-oncogene protein (Homo sapiens) (UniProt P04198); assay: Inhibition of N-Myc (unknown origin) expressed in rat Rat1A cells assessed as inhibition of cell growth incubated for 72 hrs by methylene blue staining based assay
T1 sequence (whole entry): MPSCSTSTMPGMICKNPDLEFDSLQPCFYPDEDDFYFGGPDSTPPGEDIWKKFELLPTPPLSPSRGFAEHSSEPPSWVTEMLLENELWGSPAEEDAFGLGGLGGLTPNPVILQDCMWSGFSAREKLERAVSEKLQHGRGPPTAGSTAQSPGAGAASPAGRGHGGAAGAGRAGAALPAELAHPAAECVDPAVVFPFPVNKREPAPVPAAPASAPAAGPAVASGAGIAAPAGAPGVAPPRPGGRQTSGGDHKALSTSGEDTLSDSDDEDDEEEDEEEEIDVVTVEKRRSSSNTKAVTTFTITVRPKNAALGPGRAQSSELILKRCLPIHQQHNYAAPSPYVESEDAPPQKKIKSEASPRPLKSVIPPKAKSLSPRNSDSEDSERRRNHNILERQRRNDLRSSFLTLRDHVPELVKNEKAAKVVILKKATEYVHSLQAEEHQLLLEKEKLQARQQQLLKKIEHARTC

[14] = test system: SK-MEL19; assay: Growth inhibition of human SK-MEL-19 cells; type: functional, cell-based
[15] = test system: SK-MEL-103; assay: Growth inhibition of human SK-MEL-103 cells; type: functional, cell-based
[16] = Intrinsic clearance in mouse liver microsomes at 1 uM in presence of NADPH by LC-MS/MS analysis; type: ADME, Microsome
[17] = Intrinsic clearance in human liver microsomes at 1 uM in presence of NADPH by LC-MS/MS analysis; type: ADME, Microsome
[18] = Stability in mouse liver microsomes assessed as parent compound remaining at 1 uM incubated for 0 mins in presence of NADPH by LC-MS/MS analysis; type: ADME, Microsome; settings: read-out: Stability
[19] = Stability in human liver microsomes assessed as parent compound remaining at 1 uM incubated for 0 mins in presence of NADPH by LC-MS/MS analysis; type: ADME, Microsome; settings: read-out: Stability
[20] = test system: SK-MEL-103; assay: Antitumor activity against human SK-MEL-103 cells xenografted in athymic nude mouse assessed as improvement in mouse survival at 50 mg/kg, ip dosed daily for 14 days dosed via Captisol formulation; type: functional, organism-based
[21] = Toxicity in athymic nude mouse xenografted with human SK-MEL-103 cells assessed as induction of weight loss at 50 mg/kg, ip dosed daily for 10 days dosed via Captisol formulation (reference value: 100 +/- 10%%); type: organism-based; settings: in vivo, 240 h
[22] = biological target: Myc proto-oncogene protein (Homo sapiens) (UniProt P01106); assay: Inhibition of C-Myc in human melanoma (#9) cells assessed as reduction in fumarate levels by [13C]-glucose labeling based assay; type: cell-based
[23] = test system: Melanoma cell line; assay: Antitumor activity against human melanoma cells xenografted in mouse assessed as inhibition of tumor growth measured up to 8 days; type: functional, cell-based
[24] = Toxicity in athymic nude mouse xenografted with human SK-MEL-103 cells assessed as induction of weight loss at 50 mg/kg, ip dosed daily for 5 days dosed via Captisol formulation (reference value: 100 +/- 10%%); type: organism-based; settings: in vivo, 120 h
[25] = Toxicity in athymic nude mouse xenografted with human SK-MEL-103 cells assessed as induction of sickness at 50 mg/kg, ip dosed daily for 14 days dosed via Captisol formulation and measured on day 16; type: organism-based; settings: in vivo, 336 h
[26] = Toxicity in mouse xenografted with human melanoma cells measured up to 8 days; settings: 192 h
[27] = test system: SK-MEL-103; assay: Antitumor activity against human SK-MEL-103 cells xenografted in athymic nude mouse assessed as improvement in mouse survival at 50 mg/kg, ip dosed daily for 4 days dosed via Captisol formulation; type: functional, organism-based
[28] = test system: SK-MEL-103; assay: Antitumor activity against human SK-MEL-103 cells xenografted in athymic nude mouse assessed as inhibition of tumor growth at 50 mg/kg, ip dosed daily; type: functional, organism-based
[29] = biological target: Myc proto-oncogene protein (Homo sapiens) (UniProt P01106); assay: Inhibition of C-Myc in human melanoma (#9) cells assessed as reduction in lactate levels by [13C]-glucose labeling based assay; type: cell-based
[30] = test system: SK-MEL-103; assay: Antitumor activity against human SK-MEL-103 cells xenografted in athymic nude mouse assessed as initial tumor level at 50 mg/kg, ip dosed daily for 14 days dosed via Captisol formulation (reference value: 80%); type: functional
[31] = Toxicity in athymic nude mouse xenografted with human SK-MEL-103 cells assessed as induction of weight loss at 50 mg/kg, ip dosed daily for 14 days dosed via Captisol formulation; type: organism-based; settings: in vivo, 336 h
[32] = biological target: Myc proto-oncogene protein (Homo sapiens) (UniProt P01106); assay: Inhibition of C-Myc in human melanoma (#9) cells assessed as reduction in serine levels by [13C]-glucose labeling based assay; type: cell-based
[33] = biological target: Myc proto-oncogene protein (Homo sapiens) (UniProt P01106); assay: Inhibition of C-Myc in human melanoma (#9) cells assessed as reduction in pyruvate levels by [13C]-glucose labeling based assay; type: cell-based
[34] = Toxicity in athymic nude mouse xenografted with human SK-MEL-103 cells assessed as induction of weight loss at 50 mg/kg, ip dosed daily for 14 days dosed via Captisol formulation (reference value: 100 +/- 10%%); type: organism-based; settings: in vivo, 336 h
[35] = Toxicity in athymic nude mouse xenografted with human SK-MEL-103 cells assessed as induction of weight loss at 50 mg/kg, ip dosed daily for 12 days dosed via Captisol formulation (reference value: 100 +/- 10%%); type: organism-based; settings: in vivo, 288 h
[36] = test system: HO15.19; assay: Induction of cell cycle arrest in rat HO15.19 cells assessed as accumulation at G0/G1 phase at 3 uM by flow cytometry (reference value: 50.76%); type: cell-based; settings: ho15.19, 3 µM
[37] = Toxicity in athymic nude mouse xenografted with human SK-MEL-103 cells assessed as induction of weight loss at 50 mg/kg, ip dosed daily for 3 days dosed via Captisol formulation (reference value: 100 +/- 10%%); type: organism-based; settings: in vivo, 72 h
[38] = biological target: Myc proto-oncogene protein (Homo sapiens) (UniProt P01106); assay: Inhibition of C-Myc in human SK-MEL-103 cells assessed as reduction in MYC-dependent transcriptional activation incubated for 48 hrs by microarray relative to control; type: cell-based
[39] = biological target: Myc proto-oncogene protein (Homo sapiens) (UniProt P01106); assay: Inhibition of C-Myc (unknown origin) expressed in rat HO15.19 cells assessed as accumulation at G0/G1 phase at 3 uM by flow cytometry (reference value: 35.43%); type: cell-based; parameters: scale not given: the % may be the effect or the level left
[40] = Toxicity in athymic nude mouse xenografted with human SK-MEL-103 cells assessed as induction of weight loss at 50 mg/kg, ip dosed daily for 1 days dosed via Captisol formulation (reference value: 100 +/- 10%%); type: organism-based; settings: in vivo, 24 h
[41] = Toxicity in athymic nude mouse xenografted with human SK-MEL-103 cells assessed as induction of distress at 50 mg/kg, ip dosed daily for 14 days dosed via Captisol formulation and measured on day 16; type: organism-based; settings: in vivo, 336 h

Chain of Myc proto-oncogene protein (Homo sapiens) (P01106 whole entry): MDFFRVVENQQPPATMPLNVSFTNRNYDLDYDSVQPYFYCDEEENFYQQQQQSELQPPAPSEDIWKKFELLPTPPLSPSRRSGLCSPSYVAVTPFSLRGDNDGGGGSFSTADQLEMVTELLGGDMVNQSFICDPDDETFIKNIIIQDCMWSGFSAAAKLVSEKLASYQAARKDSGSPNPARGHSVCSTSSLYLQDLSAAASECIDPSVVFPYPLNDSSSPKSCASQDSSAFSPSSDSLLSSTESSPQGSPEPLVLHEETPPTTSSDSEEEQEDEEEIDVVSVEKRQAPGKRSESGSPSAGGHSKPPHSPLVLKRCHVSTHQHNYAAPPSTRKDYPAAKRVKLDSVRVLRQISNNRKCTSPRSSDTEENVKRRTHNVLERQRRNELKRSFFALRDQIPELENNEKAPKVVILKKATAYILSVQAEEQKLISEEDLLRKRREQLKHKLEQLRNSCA

inhibition [8]: Active
inhibition [11]: Active
SMILES: CCOc1cccc(/C=N/NC(=O)CSc2nc3ccccc3[nH]2)c1O
growth inhibition (GI) [1]: Non-Toxic
growth inhibition (GI) [2]: Active
growth inhibition (GI) [3]: Active
growth inhibition (GI) [4]: Active
growth inhibition (GI) [5]: Active
growth inhibition (GI) [6]: Active
growth inhibition (GI) [7]: Active
growth inhibition (GI) [9]: Active
growth inhibition (GI) [10]: Active

inhibition [12]: Active
inhibition [13]: Active
SMILES: Cc1ccc(/C=N/NC(=O)c2cc(-c3ccccc3)n[nH]2)c(O)c1

intrinsic clearance [16]: 200 µL/min/mg
intrinsic clearance [17]: 47 µL/min/mg
inhibition [12]: Active
inhibition [13]: Active
SMILES: CCN(CC)c1ccc(/C=N/NC(=O)c2cc(C)n[nH]2)c(O)c1

intrinsic clearance [16]: 300 µL/min/mg
intrinsic clearance [17]: 120 µL/min/mg
inhibition [12]: Active
inhibition [13]: Active
SMILES: CCN(CC)Cc1c(C(=O)N/N=C/c2ccc(N(CC)CC)cc2O)nnn1-c1nonc1N

inhibition [12]: Active
remaining at 0 h, 1 µM [18]: 100%
inhibition [13]: Active
remaining at 0 h, 1 µM [19]: 100%
SMILES: Nc1nonc1-n1nnc(C(=O)N/N=C/c2ccccc2O)c1CN1CCc2ccccc2C1

inhibition [8]: Active
inhibition [11]: Active
SMILES: O=C(N/N=C/c1c(O)ccc2ccccc12)c1cc(C23CC4CC(CC(C4)C2)C3)n[nH]1

intrinsic clearance [16]: 270 µL/min/mg
intrinsic clearance [17]: 130 µL/min/mg
inhibition [12]: Active
inhibition [13]: Active
SMILES: CCCN(CCC)Cc1c(C(=O)N/N=C/c2ccc(N(CC)CC)cc2O)nnn1-c1nonc1N

intrinsic clearance [16]: 100 µL/min/mg
intrinsic clearance [17]: < 20 µL/min/mg
inhibition [12]: Active
inhibition [13]: Active
SMILES: CCN(CC)c1ccc(/C=N/NC(=O)Cn2c3ccccc3c(=O)c3ccccc32)c(O)c1

inhibition [8]: Active
inhibition [11]: Active
SMILES: CC(C)(C)c1cc(C(=O)N/N=C/c2ccc(O)cc2O)n(-c2ccccc2)n1
growth inhibition (GI) [1]: Non-Toxic
growth inhibition (GI) [2]: Active
growth inhibition (GI) [3]: Active
growth inhibition (GI) [4]: Active
growth inhibition (GI) [5]: Active
growth inhibition (GI) [6]: Active
growth inhibition (GI) [7]: Active
growth inhibition (GI) [9]: Active
growth inhibition (GI) [10]: Active

inhibition [22]: Active
intrinsic clearance [16]: 270 µL/min/mg
intrinsic clearance [17]: 110 µL/min/mg
inhibition [29]: Active
inhibition [32]: Active
inhibition [33]: Active
Activity [36]: 54.9%
inhibition [8]: Active
inhibition [38]: Active
Activity [39]: 49.7%
inhibition [11]: Active
SMILES: CCN(CC)c1ccc(/C=N/NC(=O)Cn2nnc(-c3ccccc3)n2)c(O)c1
Activity [20]: Active
Activity [21]: 111.4%
TGI [23]: Active
Activity [24]: 103.8%
Activity [25]: Non-Toxic
Activity [26]: Non-Toxic
TGI [27]: inactive
TGI [28]: Active
Activity [30]: <50%
Activity [31]: Non-Toxic
Activity [34]: 114.5%
Activity [35]: 113.3%
Activity [37]: 103.3%
Activity [40]: 100%
Activity [41]: Non-Toxic

inhibition [8]: Active
inhibition [11]: Active
SMILES: C=CCc1cccc(/C=N/NC(=O)c2cc(C(C)(C)C)n[nH]2)c1O

The remaining lines, values behind:

SMILES: CC(C)=NNc1ncnc2[nH]cnc12
growth inhibition (GI) [14]: inactive
growth inhibition (GI) [15]: inactive

SMILES: COc1ccc(OCC(=O)N/N=C\c2cc(O)c(O)c(Br)c2)c(Br)c1
inhibition [8]: Active
inhibition [11]: Active

SMILES: O=[N+]([O-])c1ccc(CCNC2CC3CCC2C3)cc1 (stereo not drawn)
growth inhibition (GI) [14]: inactive
growth inhibition (GI) [15]: inactive

SMILES: COCc1cc(CN(C)C2CCCCC2)c(O)c2ncccc12
growth inhibition (GI) [1]: Non-Toxic
growth inhibition (GI) [2]: Active
growth inhibition (GI) [3]: Active
growth inhibition (GI) [4]: Active
growth inhibition (GI) [5]: Active
growth inhibition (GI) [6]: Active
growth inhibition (GI) [7]: Active
inhibition [8]: Active
growth inhibition (GI) [9]: Active
growth inhibition (GI) [10]: Active
inhibition [11]: Active

SMILES: CC(=O)NC(c1ccc2c(c1)OCO2)c1ccc2cccnc2c1O (stereo not drawn)
inhibition [8]: Active
inhibition [11]: Active

SMILES: CCN(CC)C1CC(=O)N(c2cccc(Cl)c2)C1=O (stereo not drawn)
growth inhibition (GI) [14]: inactive
growth inhibition (GI) [15]: inactive

SMILES: CN(C)CCCNc1cc(O)c2c(c1O)C(=O)c1ccccc1C2=O
growth inhibition (GI) [14]: inactive
growth inhibition (GI) [15]: inactive

SMILES: CCCOc1ccc(N2C(=O)CC(N3CCC(C(=O)O)CC3)C2=O)cc1 (stereo not drawn)
growth inhibition (GI) [14]: inactive
growth inhibition (GI) [15]: inactive

SMILES: CCN(CC)c1ccc(/C=N\NC(=O)c2nnn(-c3nonc3N)c2CN2CCCCCC2)c(O)c1
intrinsic clearance [16]: 690 µL/min/mg
intrinsic clearance [17]: 87 µL/min/mg
inhibition [12]: Active
inhibition [13]: Active
